For the first data set, the target named is T1, MIF produced by THP-1 cells (Homo sapiens, UniProt P14174).
T1 construct: THP-1 cell supernatant was collected and incubated with a candidate compound; endogenous in cells; host or cells: THP-1 cells, LPS-stimulated, culture supernatant
T1 sequence (P14174 2-115 limits assumed): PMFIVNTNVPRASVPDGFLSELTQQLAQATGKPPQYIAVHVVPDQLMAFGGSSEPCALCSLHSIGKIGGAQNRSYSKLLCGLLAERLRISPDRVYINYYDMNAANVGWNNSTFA
The experiment in a line: Antibody binding assay of MIF inhibitors (ELISA, 96-well format). The settings on record: LPS-stimulated THP-1 cell supernatant incubated with compound; MIF monoclonal antibody capture ELISA; read-out: In vitro MIF IC50. The procedure:
An antibody binding assay for MIF inhibitors was performed on selected compounds in a 96-well format using MIF produced by THP-1 cells. The THP-1 cells were washed once with 250 μl of 0.1 M sodium carbonate, pH 11.4, for 1 to 2 minutes and immediately aspirated. The THP-1 cells were then washed with media containing 0.5% FBS plus 25 μg/ml heparin and then incubated in this same medium for the indicated lengths of time. The THP-1 cells were resuspended to approx. 5×10^6 cells/ml in RPMI medium containing 20 μg/ml of bacterial LPS and incubated for 18-20 hours, after which THP-1 cell supernatant was collected and incubated with a candidate compound. A 96-well ELISA plate (Costar Number 3590) was coated with a MIF monoclonal antibody (R&D Systems Catalog Number MAB289) at a concentration of 4 μg/ml for two hours at 37° C. Undiluted THP-1 cell culture supernatant incubated with the candidate compound was added to the ELISA plate for a two-hour incubation at room temperature. The wells were then washed, a biotinylated MIF polyclonal antibody (R&D Systems #AF-289-PB) was added followed by Streptavidin-HRP and a chromogenic substrate. The amount of MIF was calculated by interpolation from an MIF standard curve.
For orientation: ELISA stands for enzyme-linked immunosorbent assay.
As for `CCOC(=O)c1c(N2CCN(C(=O)c3cccs3)CC2)c2cscc2n(Cc2ccc(C(=O)OC)cc2)c1=O` [Compound 107], the IC50 amounted to 35 nM.

`CCOC(=O)c1c(N2CCN(C(=O)c3cccs3)CC2)c2cscc2n(Cc2ccc(F)cc2)c1=O` [Compound 106]: the IC50 turned out to be 40 nM. For `N#Cc1c(N2CCN(C(=O)c3cccs3)CC2)c2ccsc2n(Cc2ccccc2)c1=O` [Compound 116], the IC50 is 139 nM. For the molecule `CCOC(=O)c1c(N2CCN(C(=O)c3cccs3)CC2)c2cscc2n(CC(=O)c2ccccc2)c1=O` [Compound 105], the IC50 amounted to 53 nM.

As for `N#Cc1c(N2CCN(C(=O)c3cccs3)CC2)c2sccc2n(Cc2cccc(F)c2)c1=O` [Compound 112], the IC50 is 595 nM. `COC(=O)c1ccc(Cn2c(=O)c(C#N)c(N3CCN(C(=O)c4cccs4)CC3)c3cscc32)cc1` [Compound 103]: the 50% inhibitory concentration (IC50) was determined as 437 nM. With `N#Cc1c(N2CCN(C(=O)c3cccs3)CC2)c2cscc2n(CC(=O)c2ccccc2)c1=O` [Compound 101], the IC50 came to 70 nM. The same measure, in the same setting: under `N#Cc1c(N2CCN(C(=O)c3cccs3)CC2)c2sccc2n(Cc2cccnc2)c1=O` [Compound 111] stands 254 nM; under `CCOC(=O)c1c(N2CCN(C(=O)c3ccc(F)s3)CC2)c2sccc2n(Cc2cccc(F)c2)c1=O` [Compound 126], 648 nM. The same measure, in the same setting: under `CCOC(=O)c1c(N2CCN(C(=O)c3ccco3)CC2)c2sccc2n(CC(=O)c2ccccc2)c1=O` [Compound 123] stands 8770 nM; under `CCOC(=O)c1c(N2CCN(C(=O)c3cccs3)CC2)c2sccc2n(Cc2ccc(F)cc2)c1=O` [Compound 109], 233 nM; under `N#Cc1c(N2CCN(C(=O)c3cccs3)CC2)c2sccc2n(Cc2ccc(F)cc2)c1=O` [Compound 113], 419 nM. As for `CCOC(=O)c1c(N2CCN(C(=O)c3cccs3)CC2)c2sccc2n(CC(=O)c2ccccc2)c1=O` [Compound 120], the IC50 stood at 799 nM. Consider `CCOC(=O)c1c(N2CCN(C(=O)c3cccs3)CC2)c2c(C)csc2n(Cc2ccccc2)c1=O` [Compound 115], for which the IC50 turned out to be 11800 nM. On the same count and under the same terms, under `N#Cc1c(N2CCN(C(=O)c3cccs3)CC2)c2sccc2n(CC(=O)c2ccccc2)c1=O` [Compound 110] stands 1730 nM. As to `CCOC(=O)c1c(N2CCN(C(=O)c3cccs3)CC2)c2ccsc2n(Cc2ccccc2)c1=O` [Compound 114], the IC50 is 70 nM.

Turning to `N#Cc1c(N2CCN(C(=O)c3cccs3)CC2)c2cscc2n(-c2cccnc2)c1=O` [Compound 108], the IC50 was 171 nM. Same read-out and setting: under `N#Cc1c(N2CCN(C(=O)c3cccs3)CC2)c2cscc2n(Cc2cccnc2)c1=O` [Compound 104] stands 59 nM. In the case of `CC(C)OC(=O)c1c(N2CCN(C(=O)c3cccs3)CC2)c2sccc2n(Cc2cccc(F)c2)c1=O` [Compound 125], the IC50 is 387 nM. Turning to `CCOC(=O)c1c(N2CCN(C(=O)c3cccs3)CC2)c2cc(C)sc2n(Cc2cccc(F)c2)c1=O` [Compound 127], the IC50 stood at 32 nM. Turning to `N#Cc1c(N2CCN(C(=O)c3cccs3)CC2)c2cscc2n(Cc2ccc(F)cc2)c1=O` [Compound 102], the IC50 was 82 nM.

With `CCOC(=O)c1c(N2CCN(C(=O)c3ccco3)CC2)c2sccc2n(Cc2ccc(F)cc2)c1=O` [Compound 119], the IC50 is 4150 nM. For the molecule `CCOC(=O)c1c(N2CCN(C(=O)c3ccco3)CC2)c2sccc2n(Cc2cccc(F)c2)c1=O` [Compound 122], the IC50 was found to be 5840 nM.

For the molecule `CCOC(=O)c1c(N2CCN(C(=O)c3cccs3)CC2)c2sccc2n(Cc2cccnc2)c1=O` [Compound 124], the IC50 came to 269 nM.

For `CCOC(=O)c1c(N2CCN(C(=O)c3cccs3)CC2)c2sccc2n(Cc2cccc(F)c2)c1=O` [Compound 121], the IC50 is 146 nM. On the same count and under the same terms, under `Cc1csc2c1c(N1CCN(C(=O)c3cccs3)CC1)c(C#N)c(=O)n2Cc1ccccc1` [Compound 117] stands 12300 nM.

Tested on in another data set: not given
Experiment: not given
Details: not given
In the case of `CCOC(=O)c1c(N2CCN(C(=O)c3cccs3)CC2)c2sccc2n(Cc2cccc(F)c2)c1=O` [Compound 9, 4-(3-fluoro-benzyl)-5-oxo-7-[4-(thiophene-2-carbonyl)-piperazin-1-yl]-4,5-dihydro-thieno[3,2-b]pyridine-6-carboxylic acid ethyl ester], the melting point was in the range of 95 to 113 °C.

`N#Cc1c(N2CCN(C(=O)c3cccs3)CC2)c2sccc2n(Cc2ccc(F)cc2)c1=O` [Compound 28, 4-(4-fluoro-benzyl)-5-oxo-7-[4-(thiophene-2-carbonyl)-piperazin-1-yl]-4,5-dihydro-thieno[3,2-b]pyridine-6-carbonitrile] returned a melting point of 286 °C. Still for that read-out and setting: under `N#Cc1c(N2CCN(C(=O)c3cccs3)CC2)c2sccc2n(CC(=O)c2ccccc2)c1=O` [Compound 30, 5-oxo-4-(2-oxo-2-phenyl-ethyl)-7-[4-(thiophene-2-carbonyl)-piperazin-1-yl]-4,5-dihydro-thieno[3,2-b]pyridine-6-carbonitrile] stands 300 °C; under `N#Cc1c(N2CCN(C(=O)c3cccs3)CC2)c2cscc2n(Cc2ccc(F)cc2)c1=O` [Compound 49, 4-(4-fluoro-benzyl)-5-oxo-7-[4-(thiophene-2-carbonyl)-piperazin-1-yl]-4,5-dihydro-2-thia-4-aza-indene-6-carbonitrile], 238 °C; under `N#Cc1c(N2CCN(C(=O)c3cccs3)CC2)c2cscc2n(CC(=O)c2ccccc2)c1=O` [Compound 48, 5-oxo-4-(2-oxo-2-phenyl-ethyl)-7-[4-(thiophene-2-carbonyl)-piperazin-1-yl]-4,5-dihydro-2-thia-4-aza-indene-6-carbonitrile], 308 °C. Same read-out and setting: under `CCOC(=O)c1c(N2CCN(C(=O)c3cccs3)CC2)c2sccc2n(CC(=O)c2ccccc2)c1=O` [Compound 7, 5-oxo-4-(2-oxo-2-phenyl-ethyl)-7-[4-(thiophene-2-carbonyl)-piperazin-1-yl]4,5-dihydro-thieno[3,2-b]pyridine-6-carboxylic acid ethyl ester] stands 240 °C; under `N#Cc1c(N2CCN(C(=O)c3cccs3)CC2)c2cscc2n(-c2cccnc2)c1=O` [Compound 52, 5-oxo-4-pyridine-3-yl-7-[4-(thiophene-2-carbonyl)-piperazin-1-yl]-4,5-dihydro-2-thia-4-aza-indene-6-carbonitrile], 282 °C; under `COC(=O)c1ccc(Cn2c(=O)c(C#N)c(N3CCN(C(=O)c4cccs4)CC3)c3cscc32)cc1` [Compound 50, 4-{6-cyano-5-oxo-7-[4-(thiophene-2-carbonyl)-piperazin-1-yl]-5H-2-thia-4-aza-indene-4-ylmethyl}-benzoic acid methyl ester], 263 °C. Molecule `Cc1csc2c1c(N1CCN(C(=O)c3cccs3)CC1)c(C#N)c(=O)n2Cc1ccccc1` [Compound 67, 7-benzyl-3-methyl-6-oxo-4-[4-(thiophene-2-carbonyl)-piperazin-1-yl]-6,7-dihydro-thieno[2,3-b]pyridine-5-carbonitrile] yielded a melting point of 223 °C. As for `CCOC(=O)c1c(N2CCN(C(=O)c3ccco3)CC2)c2sccc2n(CC(=O)c2ccccc2)c1=O` [Compound 13, 7-[4-(furan-2-carbonyl)-piperazin-1-yl]-5-oxo-4-(2-oxo-2-phenyl-ethyl)-4,5-dihydro-thieno[3,2-b]pyridine-6-carboxylic acid ethyl ester], the melting point was 246 °C.

Turning to `CCOC(=O)c1c(N2CCN(C(=O)c3cccs3)CC2)c2cscc2n(Cc2ccc(F)cc2)c1=O` [Compound 42, 4-(4-fluoro-benzyl)-5-oxo-7-[4-(thiophene-2-carbonyl)-piperazin-1-yl]-4,5-dihydro-2-thia-4-aza-indene-6-carboxylic acid ethyl ester], the melting point stood at 227 °C.

Broadly, the IC50 is the point on the concentration scale where inhibition reaches its midpoint. The term melting point denotes the temperature, or range, at which the solid turns liquid.
